Here are results for seven molecules from ChEMBL document CHEMBL3865781, “Recent advances in the discovery and development of antibacterial agents targeting the cell-division protein FtsZ” (Bioorg Med Chem, 2016).

Converted amounts (≈) assume the structure as drawn.

For one data set, the system named is Klebsiella pneumoniae. Nature of the data set: Antibacterial activity against Klebsiella pneumoniae ATCC BAA-1144 after 18 hrs by broth microdilution method. As to conditions: ATCC BAA-1144, 18 h. The class given is functional.
In data set [1] the target is T1, Cell division protein FtsZ (Escherichia coli K-12, UniProt P0A9A6).
T1 sequence (P0A9A6 whole entry): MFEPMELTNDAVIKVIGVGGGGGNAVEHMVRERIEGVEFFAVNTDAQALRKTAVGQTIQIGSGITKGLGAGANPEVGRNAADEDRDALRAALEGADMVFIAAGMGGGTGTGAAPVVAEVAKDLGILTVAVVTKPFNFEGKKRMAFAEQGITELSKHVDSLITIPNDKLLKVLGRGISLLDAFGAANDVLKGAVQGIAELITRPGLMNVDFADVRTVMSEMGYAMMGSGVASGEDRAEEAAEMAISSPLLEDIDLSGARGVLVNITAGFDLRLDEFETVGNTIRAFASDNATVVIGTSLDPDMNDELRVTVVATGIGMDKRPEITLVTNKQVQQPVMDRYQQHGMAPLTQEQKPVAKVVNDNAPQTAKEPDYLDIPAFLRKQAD
Nature of the data set: Inhibition of recombinant Escherichia coli K12 FtsZ GTPase activity by malachite green sodium molybdate assay.

The target of data set [2] is T1, Cell division protein FtsZ. In words: Inhibition of recombinant Escherichia coli K12 FtsZ assembly by light-scattering assay.
The subject of data set [3] is Enterococcus faecalis. Nature of the data set: Antimicrobial activity against vancomycin-sensitive Enterococcus faecalis after 18 hrs by broth microdilution method. In kind it is functional.
Data set [4] has as its system Staphylococcus aureus. In words: Antibacterial activity against methicillin-sensitive Staphylococcus aureus after 18 hrs by broth microdilution method. The class given is functional.
Data set [5] relates to Staphylococcus aureus. In words: Antibacterial activity against methicillin-resistant Staphylococcus aureus ATCC BAA-41 after 18 hrs by broth microdilution method. The class given is functional. The settings on record: ATCC BAA-41, 18 h.
In data set [6] the test system is Escherichia coli. In words: Antibacterial activity against Escherichia coli ATCC 25922 after 18 hrs by broth microdilution method. In kind it is functional. As to conditions: ATCC 25922, 18 h.
Data set [7] has as its system Escherichia coli. Nature of the data set: Antibacterial activity against Escherichia coli by broth dilution method. In kind it is functional.
Data set [8] has as its system Bacillus subtilis. Nature of the data set: Antibacterial activity against Bacillus subtilis by broth dilution method. In kind it is functional.
The subject of data set [9] is Staphylococcus aureus. In words: Antibacterial activity against methicillin-resistant Staphylococcus aureus by broth dilution method. In kind it is functional.
The test system of data set [10] is Enterococcus faecalis. In words: Antimicrobial activity against vancomycin-resistant Enterococcus faecalis after 18 hrs by broth microdilution method. The class given is functional.
Data set [11] deals with Mycobacterium tuberculosis. In words: Antibacterial activity against Mycobacterium tuberculosis TN587 clinical isolates measured every 24 hrs for 7 days by MABA assay. The class given is functional.
The test system of data set [12] is Mycobacterium tuberculosis. Nature of the data set: Antibacterial activity against Mycobacterium tuberculosis W210 clinical isolates measured every 24 hrs for 7 days by MABA assay. In kind it is functional.
Data set [13] deals with Mycobacterium tuberculosis. In words: In vivo antibacterial activity against Mycobacterium tuberculosis H37Rv infected in GKO-TB mouse assessed as reduction in bacterial load in lungs at 50 mg/kg, ip or po bid for 10 consecutive days. In kind it is functional.
In data set [14] the test system is Mycobacterium tuberculosis. Nature of the data set: Antibacterial activity against Mycobacterium tuberculosis NHN382 clinical isolates measured every 24 hrs for 7 days by MABA assay. In kind it is functional.
The test system of data set [15] is Mycobacterium tuberculosis. Nature of the data set: Antibacterial activity against Mycobacterium tuberculosis NHN20 clinical isolates measured every 24 hrs for 7 days by MABA assay. In kind it is functional.
Data set [16] relates to Mycobacterium tuberculosis. In words: Antibacterial activity against Mycobacterium tuberculosis H37Rv measured every 24 hrs for 7 days by MABA assay. The class given is functional.
For data set [17], the system named is Escherichia coli. In words: Antibacterial activity against Escherichia coli. The class given is functional.
The next data set deals with Priestia megaterium. In words: Antibacterial against Bacillus megaterium. In kind it is functional.
For another data set, the system named is Salmonella typhimurium. Nature of the data set: Antibacterial activity against Salmonella typhimurium. The class given is functional, Salmonella enterica subsp. enterica serovar Typhimurium. As to conditions: Salmonella enterica.
The test system of data set [18] is Staphylococcus aureus. In words: Antibacterial against methicillin-resistant Staphylococcus aureus. The class given is functional.
For data set [19], the system named is Staphylococcus aureus. Nature of the data set: Antibacterial activity against methicillin-resistant Staphylococcus aureus after 16 to 24 hrs by microdilution method. The class given is functional.
The test system of data set [20] is Staphylococcus aureus. Nature of the data set: Antibacterial activity against methicillin-sensitive Staphylococcus aureus after 16 to 24 hrs by microdilution method. The class given is functional.
For data set [21], the system named is Staphylococcus aureus. Nature of the data set: Antibacterial activity against linezolid-nonsusceptible Staphylococcus aureus isolates after 16 to 24 hrs by microdilution method. In kind it is functional.
A short description of data set [22]: Half life in iv dosed BALB/c mouse administered 1 hr after ABT addition by LC-MS/MS analysis. In kind it is ADME, organism-based. The settings on record: in vivo.
The subject of data set [23] is Staphylococcus aureus. Nature of the data set: Antibacterial activity against vancomycin-resistant Staphylococcus aureus isolates after 16 to 24 hrs by microdilution method. The class given is functional.
The subject of data set [24] is Staphylococcus aureus. In words: Antibacterial activity against Daptomycin-nonsusceptible Staphylococcus aureus isolates after 16 to 24 hrs by microdilution method. In kind it is functional.
In data set [25] the test system is Staphylococcus aureus. Nature of the data set: Antibacterial activity against vancomycin-intermediate Staphylococcus aureus isolates after 16 to 24 hrs by microdilution method. The class given is functional.
In data set [26] the test system is Bacillus subtilis. Nature of the data set: Antibacterial activity against Bacillus subtilis after 4 hrs. The class given is functional.
The test system of data set [27] is Mycolicibacterium smegmatis. Nature of the data set: Antibacterial activity against Mycobacterium smegmatis after 4 hrs. The class given is functional.
Data set [28] concerns the target T2, Cell division protein FtsZ (Staphylococcus aureus, UniProt P0A031).
T2 sequence (P0A031 whole entry): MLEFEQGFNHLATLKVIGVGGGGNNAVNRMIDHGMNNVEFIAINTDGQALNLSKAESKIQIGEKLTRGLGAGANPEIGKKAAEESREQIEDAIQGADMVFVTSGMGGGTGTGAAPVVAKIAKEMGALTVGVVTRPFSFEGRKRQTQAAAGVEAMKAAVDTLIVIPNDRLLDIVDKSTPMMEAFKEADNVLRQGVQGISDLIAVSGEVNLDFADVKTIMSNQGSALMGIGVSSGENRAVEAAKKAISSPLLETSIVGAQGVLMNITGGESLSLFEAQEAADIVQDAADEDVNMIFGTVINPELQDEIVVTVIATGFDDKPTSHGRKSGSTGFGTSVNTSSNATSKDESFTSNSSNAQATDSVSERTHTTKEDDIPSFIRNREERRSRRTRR
Nature of the data set: Inhibition of Staphylococcus aureus N-terminal His6-tagged FtsZ GTPase activity expressed in Escherichia coli BL21(DE3) preincubated for 10 mins followed by GTP addition after 30 mins by cytophos phosphate assay.

For the molecule `COc1ccc2cc3[n+](cc2c1OC)CCc1cc2c(cc1-3)OCO2.[Cl-]` [BERBERINE CHLORIDE], the MIC fell in the range of 32 to 128 µg/mL against Klebsiella pneumoniae; 4 to 16 µg/mL in the data set with Enterococcus faecalis [3]; 2 to 8 µg/mL against Staphylococcus aureus [4]; 2 to 8 µg/mL against Staphylococcus aureus [5]; 32 to 128 µg/mL in the data set on Escherichia coli [6]. Moreover, the IC50 in data set [1] is 16 µM; in [2], 10 µM.

For the molecule `O=C/C=C/c1ccccc1` [CINNAMALDEHYDE], the MIC in the data set on Escherichia coli [7] was 0.1 µg/mL (≈ 0.757 µM); with Klebsiella pneumoniae it was 32 to 128 µg/mL (≈ 242 to 969 µM); in the data set on Enterococcus faecalis [3] it was 4 to 16 µg/mL (≈ 30.3 to 121 µM); with Staphylococcus aureus [4] it was 2 to 8 µg/mL (≈ 15.1 to 60.5 µM); in the data set on Staphylococcus aureus [5] it was 2 to 8 µg/mL (≈ 15.1 to 60.5 µM); in the data set on Bacillus subtilis [8], 0.5 µg/mL (≈ 3.78 µM). Moreover, the MIC in the data set on Escherichia coli [6] was 32 to 128 µg/mL (≈ 242 to 969 µM); in the data set with Staphylococcus aureus [9], 0.25 µg/mL (≈ 1.89 µM); against Enterococcus faecalis [10], 4 to 16 µg/mL (≈ 30.3 to 121 µM).

On to `CN(C)c1cc2[nH]c(C3CCCCC3)nc2cc1NC(=O)c1ccc(OC(F)(F)F)c(F)c1F`, for which the MIC99 amounted to 0.31 µg/mL (≈ 0.643 µM) in data set [11]; 0.47 µg/mL (≈ 0.974 µM) in [12]; 0.37 µg/mL (≈ 0.767 µM) in data set [14]; 0.39 µg/mL (≈ 0.808 µM) in data set [15]; 0.39 µg/mL (≈ 0.808 µM) in data set [16]. Moreover, the Activity in [13] is 2.5 - 3.4 log10CFU.

H-GLLRKGGEKIGEKLKKIGQKIKNFFQKLVPQPEQ-OH: the minimum inhibitory concentration (MIC) against Escherichia coli [17], against Priestia megaterium, in the data set on Salmonella typhimurium and against Staphylococcus aureus [18] was 0.5 to 64 µM throughout.

Regarding `NC(=O)c1c(F)ccc(OCc2nc3cc(C(F)(F)F)cnc3s2)c1F`, the minimum inhibitory concentration (MIC) in the data set on Staphylococcus aureus [19], against Staphylococcus aureus [20], with Staphylococcus aureus [21], against Staphylococcus aureus [23], in the data set with Staphylococcus aureus [24] and against Staphylococcus aureus [25] was 1 µg/mL (≈ 2.57 µM) in each case. This molecule also showed a half-life in data set [22] of 3.65 h.

`CCC(C)c1ccc(NC(=O)c2cccc3[nH]c(-c4cccs4)nc23)cc1` (stereo unspecified): the IC50 with Bacillus subtilis [26] turned out to be 1 µM; in [27], 1.6 µM.

For `COc1ccc2cc3[n+](cc2c1OCCCOc1ccc(Cl)cc1)CCc1cc2c(cc1-3)OCO2.[Br-]`, the minimal inhibitory concentration (MIC) with Klebsiella pneumoniae fell in the range of 32 to 128 µg/mL; in the data set with Enterococcus faecalis [3], 4 to 16 µg/mL; in the data set with Staphylococcus aureus [4], 2 to 8 µg/mL; with Staphylococcus aureus [5], 2 to 8 µg/mL; with Escherichia coli [6], 32 to 128 µg/mL. The same molecule showed an IC50 in data set [28] of 66.6 µM.
